Several values for one entry are separate records, joined by “and”; a condition that tells them apart may be missing. Equal entries are not always repeated. Inconclusive results and toxic doses are left out.

Data on 21 molecules can be found in PubChem BioAssay AID328 (DTP/NCI, 2004).

The experiment relates to BDF1 mice, P388 leukemia ip, median survival T/C. Briefly: NCI In Vivo Anticancer Drug Screen. Data for tumor model P388 Leukemia (intraperitoneal) in B6D2F1 (BDF1) mice. The following applies: endpoint: median survival time, higher = longer survival. Put shortly: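 Read-out is survival of treated animals expressed relative to the vehicle group, as a T/C ratio.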
Setting [1] is: dose: 6.25 mg/kg/injection, schedule: Q01DX009 (ip), vehicle: saline.
[2] abbreviates: dose: 12.5 mg/kg/injection, schedule: Q01DX009 (ip), vehicle: saline.
Where [3] appears, read: dose: 25.0 mg/kg/injection, schedule: Q01DX009 (ip), vehicle: saline.
Where [4] appears, read: dose: 100.0 mg/kg/injection, schedule: Q04DX003 (ip), vehicle: saline with Tween-80.
The mark [5] stands for this setting: dose: 200.0 mg/kg/injection, schedule: Q04DX003 (ip), vehicle: saline with Tween-80.
The mark [6] stands for this setting: dose: 50.0 mg/kg/injection, schedule: Q01DX009 (ip), vehicle: saline with Tween-80.
The mark [7] stands for this setting: dose: 6.25 mg/kg/injection, schedule: Q04DX003 (ip), vehicle: saline.
[8] abbreviates: dose: 12.5 mg/kg/injection, schedule: Q04DX003 (ip), vehicle: saline.
[9] abbreviates: dose: 25.0 mg/kg/injection, schedule: Q04DX003 (ip), vehicle: saline.
The mark [10] stands for this setting: dose: 50.0 mg/kg/injection, schedule: Q04DX003 (ip), vehicle: saline.
Where [11] appears, read: dose: 100.0 mg/kg/injection, schedule: Q04DX003 (ip), vehicle: saline.

For `CC1(C)SC2C(NC(=O)C(C(=O)O)c3ccccc3)C(=O)N2C1C(=O)O` (stereo not drawn), the T/C is 122 % of control (dose: 50.0 mg/kg/injection, schedule: Q01DX010 (ip), vehicle: saline); 113 % of control (dose: 100.0 mg/kg/injection, schedule: Q01DX010 (ip), vehicle: saline); 113 % of control (dose: 200.0 mg/kg/injection, schedule: Q01DX010 (ip), vehicle: saline); 118 % of control (dose: 400.0 mg/kg/injection, schedule: Q01DX010 (ip), vehicle: saline).
`c1ccc2cc(OCC3CO3)c(OCC3CO3)cc2c1` (stereo not drawn): the T/C was 161 % of control (dose: 30.0 mg/kg/injection, schedule: Q01DX005 (ip), vehicle: saline with Tween-80); 157 % of control (dose: 60.0 mg/kg/injection, schedule: Q01DX005 (ip), vehicle: saline with Tween-80); 176 % of control (dose: 120.0 mg/kg/injection, schedule: Q01DX005 (ip), vehicle: saline with Tween-80).
Regarding `NNc1ccnc2[nH]ncc12`, the T/C (dose: 6.25 mg/kg/injection, schedule: Q01DX006 (ip), vehicle: saline with Tween-80) is 107 % of control; the T/C (dose: 12.5 mg/kg/injection, schedule: Q01DX006 (ip), vehicle: saline with Tween-80) is 104 % of control; the T/C (dose: 25.0 mg/kg/injection, schedule: Q01DX006 (ip), vehicle: saline with Tween-80) is 104 % of control.
For `CCCCC(=O)c1ccc(F)cc1`, the T/C reads like this: (dose: 100.0 mg/kg/injection, schedule: Q01DX009 (ip), vehicle: Klucel (hydroxypropylcellulose) (HPC)) 95 % of control; (dose: 100.0 mg/kg/injection, schedule: Q04DX003 (ip), vehicle: Klucel (hydroxypropylcellulose) (HPC)) 91 % of control; (dose: 200.0 mg/kg/injection, schedule: Q01DX009 (ip), vehicle: Klucel (hydroxypropylcellulose) (HPC)) 104 % of control; (dose: 200.0 mg/kg/injection, schedule: Q04DX003 (ip), vehicle: Klucel (hydroxypropylcellulose) (HPC)) 104 % of control; (dose: 400.0 mg/kg/injection, schedule: Q01DX009 (ip), vehicle: Klucel (hydroxypropylcellulose) (HPC)) 109 % of control; (dose: 400.0 mg/kg/injection, schedule: Q04DX003 (ip), vehicle: Klucel (hydroxypropylcellulose) (HPC)) 91 % of control.
Turning to `COC1OC(CO)C(O)C(O)C1O` (stereo not drawn), the T/C was 97 % of control under setting [1]; 106 % of control under setting [2]; 97 % of control under setting [3]; 104 % of control (dose: 100.0 mg/kg/injection, schedule: Q01DX009 (ip), vehicle: saline); 106 % of control (dose: 200.0 mg/kg/injection, schedule: Q01DX009 (ip), vehicle: saline).
Take `OCC1CN(c2ccccc2)N=N1` (stereo not drawn): the T/C was 107 % of control (dose: 50.0 mg/kg/injection, schedule: Q04DX002 (ip), vehicle: saline + alcohol); 107 % of control (dose: 100.0 mg/kg/injection, schedule: Q04DX002 (ip), vehicle: saline + alcohol); 116 % of control (dose: 200.0 mg/kg/injection, schedule: Q04DX002 (ip), vehicle: saline + alcohol).
In the case of `CSCC(NC(=O)OCc1ccccc1)C(=O)O` (stereo not drawn), the T/C is, setting by setting: (dose: 50.0 mg/kg/injection, schedule: Q04DX003 (ip), vehicle: saline with Tween-80) 95 % of control; under setting [4], 109 % of control; under setting [5], 100 % of control.
Take `O.Oc1ccccc1C=NCCC[N-]CCCN=Cc1ccccc1O.[Co]`: under setting [6], the T/C is 114 % of control.
Take `Cc1ccc(S(=O)(=O)c2ccc(Sc3cccc[n+]3[O-])c3no[n+]([O-])c23)cc1`: the T/C was 97 % of control (dose: 15.0 mg/kg/injection, schedule: Q01DX009 (ip), vehicle: saline with Tween-80); 114 % of control (dose: 30.0 mg/kg/injection, schedule: Q01DX009 (ip), vehicle: saline with Tween-80); 90 % of control (dose: 60.0 mg/kg/injection, schedule: Q01DX009 (ip), vehicle: saline with Tween-80).
With `COc1cc(N=Nc2c[nH]c3ccccc23)c(OC)cc1N=Nc1ccc([N+](=O)[O-])cc1`, the T/C reads like this: (dose: 50.0 mg/kg/injection, schedule: Q01DX005 (ip), vehicle: saline with Tween-80) 92 % of control; (dose: 100.0 mg/kg/injection, schedule: Q01DX005 (ip), vehicle: saline with Tween-80) 106 % of control; (dose: 200.0 mg/kg/injection, schedule: Q01DX005 (ip), vehicle: saline with Tween-80) 111 % of control.
Consider `C1CN2CCC1C1(C2)SSC2(CN3CCC2CC3)S1` (stereo not drawn), for which the T/C runs as follows: under setting [7], 100 % of control; under setting [8], 105 % of control; under setting [9], 100 % of control.
For `CSc1cccc(NC(=O)OCCOc2ccc(-c3ccccc3)cc2)c1`, the T/C is 109 % of control (dose: 12.5 mg/kg/injection, schedule: Q01DX009 (ip), vehicle: Klucel (hydroxypropylcellulose) (HPC)); 105 % of control (dose: 25.0 mg/kg/injection, schedule: Q01DX009 (ip), vehicle: Klucel (hydroxypropylcellulose) (HPC)); 111 % of control (dose: 50.0 mg/kg/injection, schedule: Q01DX009 (ip), vehicle: Klucel (hydroxypropylcellulose) (HPC)).
On to `C1=C(c2ccccc2)[P+](c2ccccc2)(c2ccccc2)C=C(c2ccccc2)[P+]1(c1ccccc1)c1ccccc1`, for which the T/C reads like this: (dose: 11.0 mg/kg/injection, schedule: Q04DX003 (ip), vehicle: saline) 115 % of control; under setting [8], 123 % of control; (dose: 17.0 mg/kg/injection, schedule: Q04DX003 (ip), vehicle: saline) 123 % of control; (dose: 37.0 mg/kg/injection, schedule: Q04DX003 (ip), vehicle: saline) 100 % of control; under setting [10], 119 % of control.
Take `CCSCCCCSCC`: the T/C was 104 % of control under setting [4]; 104 % of control under setting [5]; 100 % of control (dose: 400.0 mg/kg/injection, schedule: Q04DX003 (ip), vehicle: saline with Tween-80).
`COc1ccc(/C=C/[N+](=O)[O-])cc1O`: the T/C runs as follows: under setting [1], 106 % of control; under setting [2], 115 % of control and 121 % of control; under setting [8], 113 % of control; under setting [3], 111 % of control and 121 % of control; under setting [9], 113 % of control; (dose: 50.0 mg/kg/injection, schedule: Q01DX009 (ip), vehicle: saline) 95 % of control and 123 % of control. The T/C is, setting by setting: under setting [10], 114 % of control and 122 % of control; under setting [11], 114 % of control and 122 % of control.
Take `Nc1nc(=O)n(C2OC(CO)C(O)C2O)c2scnc12` (stereo not drawn): the T/C by setting is: under setting [9], 108 % of control; under setting [10], 118 % of control; under setting [11], 118 % of control; (dose: 200.0 mg/kg/injection, schedule: Q04DX003 (ip), vehicle: saline) 108 % of control.
Turning to `CC1(C)OS2(c3ccccc3)OC(=O)c3cccc1c32` (stereo not drawn), the T/C was 94 % of control (dose: 50.0 mg/kg/injection, schedule: Q04DX002 (ip), vehicle: saline); 100 % of control (dose: 100.0 mg/kg/injection, schedule: Q04DX002 (ip), vehicle: saline); 100 % of control (dose: 200.0 mg/kg/injection, schedule: Q04DX002 (ip), vehicle: saline).
For `OC(CC1CCCCN1)c1ccccc1` (stereo not drawn), the T/C by setting is: (dose: 12.5 mg/kg/injection, schedule: Q01DX009 (ip), vehicle: saline with Tween-80) 99 % of control; (dose: 25.0 mg/kg/injection, schedule: Q01DX009 (ip), vehicle: saline with Tween-80) 99 % of control; under setting [6], 94 % of control and 110 % of control.
`NC1CCC1N` (stereo not drawn): the T/C was 110 % of control (dose: 50.0 mg/kg/injection, schedule: Q01DX001 (ip), vehicle: saline); 105 % of control (dose: 100.0 mg/kg/injection, schedule: Q01DX001 (ip), vehicle: saline); 105 % of control (dose: 200.0 mg/kg/injection, schedule: Q01DX001 (ip), vehicle: saline).
Take `CCN(CC)c1ccc(N=Cc2ccccc2S(=O)(=O)O)cc1`: the T/C is, setting by setting: under setting [1], 100 % of control; under setting [7], 104 % of control; under setting [2], 100 % of control; under setting [8], 109 % of control; under setting [3], 100 % of control; under setting [9], 104 % of control.
With `O=[N+]([O-])c1ccc(S(=O)(=O)c2ccccc2)c2c1no[n+]2[O-]`, the T/C was 109 % of control (dose: 10.0 mg/kg/injection, schedule: Q01DX009 (ip), vehicle: saline with Tween-80); 106 % of control (dose: 20.0 mg/kg/injection, schedule: Q01DX009 (ip), vehicle: saline with Tween-80); 106 % of control (dose: 40.0 mg/kg/injection, schedule: Q01DX009 (ip), vehicle: saline with Tween-80).
